Experiments:
[1] = tested on: JAML shedding from differentiated HL60; test: JAML shedding with protease inhibitors, differentiated HL60; format: cell-based, human; settings: PMA 200 nM; cocktail 1:50, AEBSF 1 mM, PMSF 2 mM, Phenanthroline 5 mM, NEM 6 mM; sandwich ELISA; FIG. 6A
Method: JAML shedding from differentiated HL60 was assayed as described in the legend for FIG. 5. Protease inhibitors were added to cell suspensions during incubation in H^+ with or without PMA. Inhibitors used were Sigma inhibitor cocktail (Cat #P8340) used at 1:50 dilution, AEBSF 1 mM, PMSF 2 mM, Phenanthroline 5 mM and NEM 6 mM.
(§1) To explore the mechanisms for release of JAML from the surface of differentiated HL60 and PLB-985 cells during activation with PMA, PMA was added to cells in the presence or absence of a variety of protease inhibitors. The protease inhibitor cocktail from Sigma that targets serine proteases was used as well as cysteine proteases and several independent inhibitors. […] (Le Gall et al., 2003, JBC 278 No46 45255-45268).
Cells were suspended at 100×10^6 cells/ml in 50 ml centrifuge tubes. PMA was added at a final concentration of 200 nM and tubes incubated at 37° C. of 30 min. Supernatants were collected by centrifugation. To eliminate the presence of macroparticles in the supernatants, ultracentrifugation was performed in a table-top microcentrifuge (Beckman TL-100) at 100,000 g for 30 minutes. The “cleared” supernatants were assayed for the presence of soluble JAML.
Purified antibody DW100 (100 μl/well of 10 μg/ml dilution) was coated onto a high binding 96 well plate (Immulon II) overnight at 4° C. or 1½ hr at 37° C. After washing, 200 μl of 5% blocking solution (Roche) was added to each well for 1 hr at room temperature (RT). After washing, 100 μl supernatant samples in triplicates were added to the wells as well as serial dilutions of purified sJAML-His and incubated for 1 hr RT. After washing, 100 μl biotinylated DW216 antibodies was added at 10 μg/ml. This was followed after a wash by Streptavidin-HRP diluted at 1:4000. The wells were washed again and after addition of ABTS substrate, wells were analyzed using a microplate reader at 405 nm wavelength.

[2] = tested on: JAML shedding from PLB985; test: JAML shedding with protease inhibitors, PLB985; format: cell-based, human; settings: Phenanthroline; TAPI-2 1 μM
Method: FIG. 5C. Inhibition of JAML shedding on the cell surface of PLB985 was confirmed by FACS analysis of cells stained with DW216. In the presence of inhibitors, activated cells maintained the same level of surface expression as the non-activated cells.
as §1
Cells suspensions of adherent cells were prepared by trypsinization with Trypsin-EDTA (Sigma). After washing, cells were resuspended in FACS buffer (2% FBS in PBS+0.1% Na Azide). Approximately, 3-5×10^5 cells were incubated with 5-10 μg/ml of primary antibody for 1 hr at 4° C. followed by 3 washes in FACS buffer and incubation with 1 μg/ml secondary antibody conjugated with Alexa-488. After final washes, cells were analyzed using FACS Calibur. […] All samples were stained for JAML (DW100 mAb) and CD11b/CD18 (CBRM 1/29), and only CD11b/CD18 positive cells (PMNs) were analyzed for JAML expression.

[3] = tested on: JAML release from CHO-JAML-His transfectants; test: JAML release with protease inhibitors, CHO-JAML-His transfectants; format: cell-based
PMN = test: Surface JAML on PMN after activation (flow cytometry); format: cell-based, human; settings: PMA 200 nM, suspension, 15 minutes at 37° c.; FIG. 4A
Method: Freshly isolated PMN, not treated (No Tx), or treated with either fMLF (100 nM) or PMA (200 nM) in suspension for 15 minutes at 37° c. were fixed with 1% paraformaldehyde, stained for JAML (DW100) and CD11b/CD18 (CBRM 1/29) and analyzed for surface expression by flow cytometry.
Since prior to transepithelial migration PMNs exit the blood vessels, whether JAML expression on PMNs would be preserved during migration across endothelial cells (HDMECs) towards a 10 μM fMLF, as described previously was evaluated. Indeed under similar conditions only a small portion of surface JAML was lost, but most of it was still detectable on PMN surface (FIG. 3B).
Thus whether PMN activation alone is sufficient to induce the loss of surface JAML or whether direct contact with the epithelium is required was examined. To test this, the expression of JAML was analyzed on PMNs that were stimulated in suspension with fMLF (100 μM) and PMA (200 nM). PMNs were allowed to adhere to epithelial cells for 1 hour. The loss of JAML could be correlated to the degree of PMN activation. […] This was again confirmed by immunofluorescence (FIG. 4B). PMN adhesion to epithelium in the absence of proinflamatory stimulus (as measured by flow cytometry, gating on Mac-1 positive PMNs) was also sufficient to induce a partial loss of surface JAML (FIG. 4C), in agreement with the small loss of surface JAML observed after migration through endothelial cells (FIG. 3B). […] Next, the observed loss of JAML during PMN activation may be due to its shedding from PMN surface and thus would be detectable in the supernatant of activated cells. To test this hypothesis, two antibodies, DW100 and DW216 that recognize two different epitopes of JAML were used in a sandwich ELISA assay to capture solubilized molecules in the supernatant of activated PMN.

monocytes = test: Surface JAML on monocytes after PMA activation; format: cell-based, human; settings: 15 minutes at 37° C., FIG. 11
Method: Monocytes were isolated and purified from whole blood of healthy human donors, incubated on ice with either IgG control (solid histograms) or purified anti-JAML antibodies (5 μg/ml), followed by Alexa Fluor 488 conjugated goat anti mouse antibody before (NoTx) and after PMA activation (PMA, 15 minutes at 37° C.). JAML surface expression was analyzed by flow cytometry.
Following the observation of a complete loss of JAML on PMNs that underwent TEM and with the use of JAML specific mAbs, it was determined that the loss of JAML was induced by PMN activation and that it correlated to the degree of activation and the strength of the given stimulus. […] JAML shedding is not restricted to PMNs alone. JAML is also expressed on blood monocytes. […] As monocytes trail the PMNs infiltrating mucosal surfaces, in addition to PMNs they would also be a source for soluble JAML, further enhancing its effects on epithelial function. […] The shedding of JAML is believed to be due to a zinc-dependent metalloprotease that is inhibited by phenanthroline, a zinc chelator molecule and TAPI-2, a hydroxymate acid-base derivative which inhibits zinc-dependent metalloprotease activities by binding specifically to the catalytic site of the enzyme.

[4] = tested on: HL-60 and PLB-985 cell lines; test: Surface JAML on HL-60 and PLB-985 after PMA activation; format: cell-based, human; settings: 200 nM PMA, 30 minutes at 37° C.; FIG. 5A
Method: Both HL60 and PLB985 (non-differentiated and differentiated) were washed in Hanks solution with Ca^++ and Mg^++ (H^+) at 30×10^6 cells per condition and resuspended in 350 μl H^+ or H^+ containing 200 nM PMA followed by 30 minutes incubation at 37° C. A cell aliquot was set aside for flow cytometry and cells were stained with monoclonal CBRM1/29 (CD11b/CD18) or DW100 anti JAML followed by Alexa Fluor 488 conjugated goat anti mouse antibody.
The findings of JAML shedding were extended to both HL-60 and PLB-985 cell lines. […] Upon activation, human neutrophils release microparticles,called ectosomes, directly from the cell surface and that ectosomes are implicated in the inflammatory response (Eken et al., 2008, J. Immunol. 180, 817-824). To test whether JAML molecules were released in microparticles, supernatants from activated cells were subjected to ultracentrifuge (100,000×g). […] Thus, JAML is indeed shed into the medium upon PMN activation as a soluble molecule.

epithelial CAR = biological target: T1, epithelial CAR (Mus musculus, UniProt P97792); test: Immunofluorescence of wounded mouse colonic tissue; format: in vivo; settings: I.P. administered his-tagged protein; 1 day after wounding; FIG. 13E
T1 construct: from tissue; host or cells: mouse colonic mucosa
T1 sequence (P97792 20-365): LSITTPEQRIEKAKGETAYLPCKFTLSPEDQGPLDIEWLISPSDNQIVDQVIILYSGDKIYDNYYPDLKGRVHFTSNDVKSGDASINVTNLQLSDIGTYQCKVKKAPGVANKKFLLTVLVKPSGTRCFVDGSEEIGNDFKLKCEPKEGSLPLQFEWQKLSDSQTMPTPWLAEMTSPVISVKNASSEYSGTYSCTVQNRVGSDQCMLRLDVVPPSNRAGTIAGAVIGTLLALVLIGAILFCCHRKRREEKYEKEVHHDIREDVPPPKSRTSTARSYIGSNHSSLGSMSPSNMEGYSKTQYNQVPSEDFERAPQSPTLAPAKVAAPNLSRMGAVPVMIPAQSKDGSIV

murine CAR = biological target: T2, murine CAR (Mus musculus, UniProt P97792); settings: cited from earlier work
T2 sequence (P97792 20-365): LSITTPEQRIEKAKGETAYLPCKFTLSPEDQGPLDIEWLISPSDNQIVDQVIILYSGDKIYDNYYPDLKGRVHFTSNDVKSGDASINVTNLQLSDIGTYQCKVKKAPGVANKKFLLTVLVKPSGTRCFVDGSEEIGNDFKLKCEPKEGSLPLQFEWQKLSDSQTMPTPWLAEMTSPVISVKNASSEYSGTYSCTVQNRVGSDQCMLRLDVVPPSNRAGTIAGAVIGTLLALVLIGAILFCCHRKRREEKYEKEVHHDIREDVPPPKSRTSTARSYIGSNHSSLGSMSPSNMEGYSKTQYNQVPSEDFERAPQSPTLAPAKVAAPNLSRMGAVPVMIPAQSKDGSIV

CAR = biological target: T3, CAR (Mus musculus, UniProt P97792); test: Colonic mucosal wound healing in vivo; settings: mice; I.P. twice a day 10 μg in 200 μl PBS; endoscopic imaging; FIG. 13B
T3 construct: from tissue; host or cells: mouse colonic mucosa
T3 sequence (P97792 20-365): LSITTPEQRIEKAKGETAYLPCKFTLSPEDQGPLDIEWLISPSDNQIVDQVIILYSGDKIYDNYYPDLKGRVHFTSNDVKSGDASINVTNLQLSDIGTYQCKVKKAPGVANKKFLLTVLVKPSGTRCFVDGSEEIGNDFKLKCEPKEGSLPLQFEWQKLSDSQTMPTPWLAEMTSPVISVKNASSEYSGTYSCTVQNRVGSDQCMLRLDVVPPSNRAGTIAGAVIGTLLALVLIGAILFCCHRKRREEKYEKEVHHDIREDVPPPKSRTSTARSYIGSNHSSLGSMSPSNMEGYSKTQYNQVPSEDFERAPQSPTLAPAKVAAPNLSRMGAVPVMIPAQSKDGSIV
Method: (§2) To examine this in-vivo, the effect of inhibition of CAR function was analyzed on mucosal wound recovery. […] See Witherden et al., Science, 2010, 329(5996): 1205-1210. Whether administration of recombinant Ad5 inhibits colonic wound healing was examined in mice in a fashion analogous to the endogenous CAR ligand, JAML. Colonic mucosal wounds were generated using a mouse colonoscope, and wound recovery was examined 2 and 4 days post wounding by endoscopic imaging in the presence of Ad5, Ad11 (administered I.P, twice a day 10 μg in 200 μl PBS) or PBS alone.
as §2, with “function” for “function was analyzed”, “recovery was analyzed.” for “recovery.”, “colonoscope (FIG. 13, Panel A),” for “colonoscope,”, “alone. […] The delayed wound closure was also evident from histological analysis (representative images, FIG. 13, Panel C) and whole mount preparation (representative images, FIG. 13, Panel D).” for “alone.”

In the case of `O=S(=O)(F)Cc1ccccc1` [PMSF, Phenylmethylsulfonyl fluoride], the “inhibition of PMA-induced JAML shedding, differentiated HL60” value (“inhibition … differentiated HL60” below) [1] is reported as “showed some inhibition”.

For `CCN1C(=O)C=CC1=O` [N-Ethyl maleimide, N-Ethylmaleimide], the “inhibition … differentiated HL60” value [1] was “No decrease in JAML shedding”.

In the case of `NCCc1ccc(S(=O)(=O)F)cc1` [AEBSF], the “inhibition … differentiated HL60” value [1] is reported as “No decrease in JAML shedding”.

In the case of `CC(C)C[C@H](CC(=O)NO)C(=O)N[C@H](C(=O)N[C@@H](C)C(=O)NCCN)C(C)(C)C` [TAPI-2], the “inhibition of PMA-induced JAML shedding, PLB985” value [2] is reported as “inhibition of shedding” and the “inhibition of PMA-induced JAML release, CHO-JAML-His transfectants” value [3] is reported as “strongly inhibited JAML release due to PMA activation”.

In the case of `CCCCCCCCCCCCCC(=O)O[C@@H]1[C@@H](C)[C@@]2(O)[C@@H](C=C(CO)C[C@]3(O)C(=O)C(C)=C[C@@H]23)[C@@H]2C(C)(C)[C@]12OC(C)=O` [PMA, Phorbol Myristate Acetate], the “surface JAML on PMN after PMA” value (PMN) is reported as “complete loss of surface JAML from PMNs”, the “JAML expression on monocytes after PMA” value (monocytes) is reported as “lost upon activation with PMA” and the “surface JAML on HL-60 and PLB-985 after PMA” value [4] is reported as “complete loss of surface JAML”.

B1: Ad5: recombinant adenoviral fiber knob protein Ad5, reported to bind murine CAR (protein)
chain: GAITVGNKNNDKLTLWTTPAPSPNCRLNAEKDAKLTLVLTKCGSQILATVSVLAVKGSLAPISGTVQSAHLIIRFDENGVLLNNSFLDPEYWNFRNGDLTEGTAYTNAVGFMPNLSAYPKSHGKTAKSNIVSQVYLNGDKTKPVTLTITLNGTQETGDTTPSAYSMSFSWDWSGHNYINEIFATSSYTFSYIAQE
modifications: left off: small tags and cut ends
In the case of B1, the “colocalization with epithelial CAR at wounded areas” value (epithelial CAR) is given as “colocalizes with epithelial CAR at wounded areas”, the “binding to murine CAR and competition with JAML binding (Witherden et al. 2010)” value (murine CAR) is given as “has been reported to bind murine CAR and compete with JAML binding” and the “mucosal wound healing 4 days after wounding” value (CAR) is given as ~20%.

— patent publication US10465005B2, “JAML specific binding agents, antibodies, and uses related thereto” (Emory University, priority 2011, dated 2019)
